Results from US20200078404A1, “COMBINATION OF A CELL THERAPY AND AN IMMUNOMODULATORY COMPOUND” (Juno Therapeutics, Inc., priority 2017, published 2020).

What was measured:
[1] = tested on: anti-CD19 CAR+ T cells; assay: CD25 and PD-1 surface expression of anti-CD19 CAR+ T cells incubated with K562-CD19 cells; format: cell-based, human
Method: After 120 hours of culture, cells were isolated and assessed by flow cytometry for surface expression of CD25 or PD-1 in CD4+ or CD8+ T cell subsets.

[2] = tested on: K562.CD19 target cells; assay: Cytolytic function of anti-CD19 CAR-expressing T cells against K562.CD19 target cells; format: cell-based, human
Method: K562.CD19 target cells were transduced with NucLight Red to permit their tracking by microscopy. Cytolytic activity was assessed by measuring the loss of viable target cells over a period of five days, as determined by red fluorescent signal (using the IncuCyte® Live Cell Analysis System, Essen Bioscience).

[3] = tested on: anti-CD19 CAR-expressing T cells; assay: Cytokine production after anti-idiotypic antibody stimulation; conditions: anti-idiotypic antibody 0.3-30 μg/ml, 24 hours; Compound 1 100, 1000 nM; lenalidomide 500, 5000 nM
[4] = tested on: K562.CD19 target cells; assay: Serial stimulation with K562.CD19: cytolytic function at day 24; format: cell-based, human; conditions: day 24 after serial stimulation
Source text: (§1) Every 3-4 days (start of each new round), the cells were counted.

[5] = tested on: anti-BCMA CAR T cells; assay: Cytokine production of anti-BCMA CAR T cells on low, medium, high BCMA bead stimulation; format: cell-based, human
Method: In another study, recombinant human BCMA-conjugated beads were used to stimulate CAR T cells at various concentrations to titrate the magnitude of stimulation, either low (5 μg/mL), medium (50 μg/mL), and high (200 μg/mL) stimulation.

[6] = tested on: anti-CD19 CAR+ T cells; assay: IL-10 in supernatants of anti-CD19 CAR+ T cells incubated with K562-CD19 cells; conditions: E:T 3:1 or 9:1, 24 hours
[7] = tested on: anti-BCMA CAR+ T cells; assay: T cell markers and proliferation of anti-BCMA CAR+ T cells stimulated with BCMA-conjugated beads; format: cell-based, human
Method: B cell maturation antigen (BCMA) was conjugated to beads by covalently coupling a BCMA-Fc fusion polypeptide, containing soluble human BCMA fused at its C-terminus to an Fc region of IgG, to the surface of commercially available tosyl-activated magnetic beads (ThermoFisher, Waltham Mass.). The beads are superparamagnetic, non-porous, monodisperse, tosylactivated beads that covalently bind primary amino and sulfhydryl groups. Conjugation was performed using beads having a diameter of approximately 2.8 μm (designated M-280) or 4.5 μm (designated M-450).
Various concentrations of the BCMA-Fc fusion protein ranging from 5 μg to 200 μg were added to approximately 1 mL of tocylactivated beads (e.g. containing about 4×10^9 tocylactivated beads having a diameter of 2.8 μm or about 4×10^8 tocylactivated beads having a diameter of 4.5 μm). Covalent coupling was performed by overnight incubation at 37° C. in phosphate buffered solution (PBS) containing 0.1% human serum albumin (HSA). Beads were washed and resuspended in 1 mL PBS with 0.1% HSA. After conjugation, the bead concentration was determined using a Cellometer. In the examples below, the BCMA-conjugated beads used in various studies are referred to with reference either to the amount of BCMA-Fc antigen added per mL or the antigen concentration (μg/mL) during the conjugation, e.g. 5 μg or 5 μg/mL; 50 μg or 50 μg/mL; 200 μg or 200 μg/mL and so on.
Approximately 1.5×10^6 CAR+ T cells were added to wells of a 12-well plate and were incubated with beads from a 200 μg/ml BCMA-conjugated bead composition at a ratio of CAR+ T cell to BCMA-conjugated bead of 1:0.3, 1:1 or 1:3 (approximately 0.5×10^6, 1.5. 10^6, and 4.5×10^6 beads per well, respectively). As controls, 5 μg/mL anti-CD3 antibody was coated to wells (sub-optimal concentration for stimulation) or cells were seeded in the absence of any agent (no stimulation control). […]
In a further experiment, anti-BCMA CAR-T cell compositions produced substantially as described in Example 1 were plated in 96-well plates at a density of 5×10^5 cells per well. […]

[8] = tested on: anti-BCMA CAR-T cells; assay: Prestimulation of anti-BCMA CAR-T cells on BCMA beads for 7 days: phenotype, cytolytic activity and cytokines with RPMI-8226; format: cell-based, human
Method: Expression of CD25, PD-1, Tim3 and Lag3 on CAR T cells (using an antibody for surrogate CAR marker) cultured under the different conditions then was assessed by flow cytometry.
Percentage killing was normalized to anti-BCMA CAR T cells prestimulated on beads in the presence of vehicle. Cytokine production was assessed by ELISA from supernatant following culture with target cells for 24 hours. Experiments were performed twice in 3 donors. […] P values were obtained by likelihood ratio tests comparing the full model with the effect of interest against the model without the effect of interest.

[9] = tested on: anti-CD19 CAR-expressing T cells; assay: Serial stimulation with K562.CD19: expansion (cell doublings); format: cell-based, human; conditions: for cell doublings: 1000 nM lenalidomide
Source text: as §1

[10] = medium stimulation (50 μg BCMA beads), 24 hours, 1 μM lenalidomide
[11] = 1 μM lenalidomide during the prestimulation period
[12] = 1 μM lenalidomide, 7 days on BCMA beads

**Q.** With `Nc1cccc2c1CN(C1CCC(=O)NC1=O)C2=O` (stereo not drawn) [lenalidomide, 3-(4-amino-1-oxo-1,3-dihydro-2H-isoindol-2-yl)piperidine-2,6-dione] as the compound, how does the “CD25 expression in CD4+ and CD8+ T cells” value ([1]; 1600 nM lenalidomide, E:T 2.5:1, 120 hours) read?
**A.** higher levels of CD25 expression

**Q.** What about the “surface expression of PD-1 in CD4+ or CD8+ T cells” value ([1]; up to 1600 nM lenalidomide, 120 hours) of the same compound?
**A.** No difference in surface expression of PD-1

**Q.** And the “cytolytic activity of anti-CD19 CAR-expressing cells” value ([2]; 2.5:1 E:T ratio, some donors)?
**A.** slightly reduced cytolytic activity

**Q.** And the “cytolytic activity of anti-CD19 CAR-expressing T cells” value ([2]; 5:1 E:T ratio, high concentrations, Donor 2, no effects with Donors 1 and 3)?
**A.** slight but consistent increase in cytolytic activity

**Q.** What about the “cytolytic function of anti-CD19 CAR-expressing T cells” value ([2]; five days, three donors) of the same compound?
**A.** limited effect on cytolytic function

**Q.** What about the “IFN-γ, IL-2 and TNF-α production” value [3] of the same compound?
**A.** increased relative to the vehicle control

**Q.** What about the “cytolytic activity of anti-CD19 CAR-expressing T cells” value [4] of the same compound?
**A.** increase the cytolytic activity

**Q.** And the “percentage of IFN-γ+ and TNF-α+ intracellular staining” value ([5]; 0.1 or 1.0 μM lenalidomide, all stimulation levels, CD4+ and CD8+)?
**A.** increased the percentage of IFN-γ^+ and TNF-α^+ intracellular staining

**Q.** What about the “percentage of IL-2+ CAR+ T cells” value ([5]; 5-μg stimulation) of the same compound?
**A.** increasing the percentage of IL-2^+ CAR^+ T cells

**Q.** What about the “percentage of IL-2+ CAR+ T cells” value ([5]; 50-μg and 200-μg stimulation) of the same compound?
**A.** decreasing the percentage of IL-2^+ CAR^+ T cells

**Q.** And the “CAR T cytokine production” value ([5]; absence of stimulation)?
**A.** had no effect on CAR T cytokine production

**Q.** And the “increase in IL-2 concentration compared with vehicle control” value [5, 10]?
**A.** 200%

**Q.** And the “increase in TNF-α concentration compared with vehicle control” value [5, 10]?
**A.** 200%

**Q.** And the “IFN-γ concentration compared with vehicle control” value ([5]; medium stimulation, 24 hours)?
**A.** donor-dependent increases

**Q.** What about the “secretion and/or accumulation of IL-10” value [6] of the same compound?
**A.** dose-dependently increased secretion and/or accumulation of IL-10

**Q.** What about the “expression level of Ikaros” value ([7]; 0.5 μM or 5 μM lenalidomide, 18 hours, all conditions) of the same compound?
**A.** decreased

**Q.** What about the “proliferative capacity of T cells (CTV)” value ([7]; 5 μM lenalidomide, 200 μg BCMA beads, 1:1, three days) of the same compound?
**A.** increased the proliferative capacity of T cells

**Q.** And the “surface expression of CD25 in CD4+ and CD8+ T cells” value ([7]; 5 μM lenalidomide, BCMA-conjugated beads or anti-CD3)?
**A.** further increased the extent of surface expression of CD25

**Q.** What about the “cytokine production of prestimulated CAR-T cells” value [8, 11] of the same compound?
**A.** trend toward increased cytokine production

**Q.** And the “cytolytic function of prestimulated CAR-T cells” value [8, 11]?
**A.** preserved cytolytic function

**Q.** What about the “CD25 expression (MFI)” value [8, 12] of the same compound?
**A.** increasing CD25 expression

**Q.** What about the “PD-1 expression (MFI)” value [8, 12] of the same compound?
**A.** reduced PD-1 expression

**Q.** And the total cell count ([8]; 7-day period, all donors)?
**A.** did not alter the total cell count

**Q.** What about the “CAR+ viability” value ([8]; 7 days on BCMA beads, 3 healthy donors) of the same compound?
**A.** significantly increased CAR+ viability

**Q.** What about the “percentage positive for Lag3 expression” value ([8]; CD4+ and CD8+ CAR+ populations, all donors) of the same compound?
**A.** increased

**Q.** What about the “percentage of PD-1+ cells” value ([8]; CD4+ population) of the same compound?
**A.** decrease in the percentage of PD-1+ cells

**Q.** What about the “surface expression of Tim3” value ([8]; CD8+ population, three donors) of the same compound?
**A.** increased the surface expression of Tim3 in the CD8+ population

**Q.** And the “CAR+ T cell counts” value ([9]; 100 nM lenalidomide)?
**A.** increased CAR+ T cell counts for two out of three donors

**Q.** And the cell doublings ([9]; 2.5:1 E:T ratio, later rounds)?
**A.** lower cell doublings were only observed in two of the donors

**Q.** What about the cell doublings ([9]; 10:1 E:T ratio, after 3-4 rounds, all donors) of the same compound?
**A.** decreased cell doublings
